Assays:
[1] = tested on: patients with schizophrenia; conditions: cigarettes, sprays, patch; cited from earlier work
[2] = tested on: clinically stable subjects with schizophrenia; test: Phase 2a Clinical Study A: NSA-16 (negative symptoms); assay type: in vivo, human
Description: (§1) A Phase 2a proof-of-concept (POC) study in clinically stable subjects with schizophrenia who were clinically stable and received stable doses of atypical antipsychotic therapy. The study was a Phase 2, multi-center, randomized, double-blind, placebo-controlled, parallel group study designed to evaluate the safety and efficacy of doses of (4s)-4-(5-phenyl-1,3,4-thiadiazol-2-yloxy)-1-azatricyclo[3.3.1.1^3,7]decane (Compound A) in clinically stable male and female subjects (ages 20 to 55, inclusive) with a Diagnostic and Statistical Manual of Mental Disorders—Fourth Edition, Text Revision (DSM-IV-TR) diagnosis of schizophrenia. […] The criteria for clinical stability was determined by a combination of retrospective data (over the 4 months prior to the start of Screening, which will be supported by clinical records, patient, identified responsible contact person, and physician interviews), and prospective data assessed during the Prospective Stabilization Period of 28 to 42 days duration. […]
(§2) The primary endpoint was the MCCB composite score, and the primary endpoint analysis was the change on the MCCB composite score from baseline to endpoint versus placebo. Other secondary measures included the MCCB domains, the NSA-16, the CANTAB cognition battery (measured at different time points from the MCCB), and the UPSA-2. […]

[3] = tested on: clinically stable subjects with schizophrenia; test: Phase 2a Clinical Study A: disposition of subjects and tolerability; assay type: in vivo, human; conditions: for Primary reason for discontinuation: Adverse event: percentages based on treated subjects
Description: (§3) A Phase 2a proof-of-concept (POC) study in clinically stable subjects with schizophrenia who were clinically stable and received stable doses of atypical antipsychotic therapy. The study was a Phase 2, multi-center, randomized, double-blind, placebo-controlled, parallel group study designed to evaluate the safety and efficacy of doses of (4s)-4-(5-phenyl-1,3,4-thiadiazol-2-yloxy)-1-azatricyclo[3.3.1.1^3,7]decane (Compound A) in clinically stable male and female subjects (ages 20 to 55, inclusive) with a Diagnostic and Statistical Manual of Mental Disorders—Fourth Edition, Text Revision (DSM-IV-TR) diagnosis of schizophrenia. Psychiatric diagnoses were confirmed using the Mini-International Neuropsychiatric Interview (MINI) version 6.0.0. The criteria for clinical stability was determined by a combination of retrospective data (over the 4 months prior to the start of Screening, which will be supported by clinical records, patient, identified responsible contact person, and physician interviews), and prospective data assessed during the Prospective Stabilization Period of 28 to 42 days duration.
(§4) The study was a Phase 2, multi-center, randomized, double-blind, placebo-controlled, parallel group study designed to evaluate the safety and efficacy of doses of (4s)-4-(5-phenyl-1,3,4-thiadiazol-2-yloxy)-1-azatricyclo[3.3.1.1^3,7]decane, which is also recognized as Compound A, in treating cognitive deficits in subjects with schizophrenia who were clinically stable and receiving one or two atypical antipsychotic medications. Study drug was administered orally.
(§5) The study consisted of a screening period of at least 28 and up to 42 days, a 84-day outpatient treatment period, a 14-day post-treatment period, and a post-treatment follow-up period. The screening period consisted of three visits: Screening Visit 1, Screening Visit 2, and Day −1. Upon completion of Day −1 procedures, eligible subjects were randomized through an Interactive Voice Response/Interactive Web-Based (IVR/IWB) system. Subjects were randomized in an equal ratio to one of three treatment groups (placebo, 10 mg Compound A, or 25 mg Compound A).
(§6) Subjects were randomized in a 1:1:1 ratio with placebo, 10 mg QD Compound A, of 25 mg Compound A. Each subject was instructed to take study drug once-daily in the morning for 12 weeks. Each daily dose was preferably taken with food. The subject and investigator were blinded to the treatment assignment throughout the study. The treatment assignments for the study subjects are shown below in Table 1.
Subjects completed 2 visits during the screening period. […]

[4] = tested on: clinically stable subjects with schizophrenia; test: Phase 2a Clinical Study A: MATRICS Consensus Cognitive Battery (MCCB); assay type: in vivo, human; conditions: for change from baseline to Week 12 in MCCB composite score (LS mean): ITT analysis, 12 weeks; for MCCB composite LS mean change from baseline to Week 12: subset of nonsmokers
Description: as §3, §4, §5, §6
(§7) The primary endpoint was the MCCB composite score, and the primary endpoint analysis was the change on the MCCB composite score from baseline to endpoint versus placebo. Other secondary measures included the MCCB domains, the NSA-16, the CANTAB cognition battery (measured at different time points from the MCCB), and the UPSA-2. The Positive and Negative Syndrome Scale (PANSS) was included to document stability in schizophrenia symptomatology.
The MCCB was developed by a consortium of academic, industry, the Food and Drug Administration (FDA) and National Institute of Mental Health (NIMH) members called Measurement and Treatment Research to Improve Cognition in Schizophrenia (MATRICS). The battery was established in a multiple phase process that involved experts identifying cognitive tests in the literature that had shown deficits in schizophrenia, use of factor analysis to identify key domains of cognitive deficits in schizophrenia, and then empirically identifying the best tests for each domain based on reliability, validity and feasibility for use in clinical trials. The FDA has endorsed the MCCB as an appropriate outcome measure for Phase 3 CDS trials. […]

[5] = tested on: clinically stable subjects with schizophrenia; test: Phase 2a Clinical Study A: Positive and Negative Syndrome Scale (PANSS); assay type: in vivo, human; conditions: ITT or nonsmoker groups, throughout the study
Description: as §1, §2

[6] = tested on: clinically stable subjects with schizophrenia; test: Phase 2a Clinical Study A: UCSD Performance-Based Skills Assessment-2 (UPSA-2); assay type: in vivo, human; conditions: for UPSA-2 change from baseline score: placebo 2.6, not statistically significant
Description: as §3, §4, §5, §6, §7
The UCSD Performance-Based Skills Assessment-2 (UPSA-2) is a role-play test designed for subjects with schizophrenia to evaluate cognitive functional capacity in six selected domains of basic living skills. These areas include Organization/Planning, Financial Skills, Communication, Transportation, Household Management, and Medication Management. […] Scores were obtained for each subtest, and the total score was the sum of these subtests. […] The UPSA-2 required an average of 30 minutes to administer. The UPSA-2 was administered in on Days 14, 28, 56, 84 and 98.

[7] = tested on: clinically stable subjects with schizophrenia; test: Phase 2a Clinical Study A: CANTAB cognition battery; assay type: in vivo, human; conditions: taken at different time points from the MCCB
Description: as §1, §2

[8] = in vivo; cited from earlier work
[9] = tested on: patients with schizophrenia; conditions: cited from earlier work
[10] = subset of smoking subjects, both dose groups (10 mg, 25 mg)
[11] = nonsmokers, dose group not stated

CN1CCCC1c1cccnc1 (stereo not shown) [Nicotine, nicotine]
neuropsychological performance [1]: improved

c1ccc(-c2nnc(O[C@@H]3C4CC5C[C@H]3C[N@](C5)C4)s2)cc1 [Compound A, (4s)-4-(5-phenyl-1,3,4-thiadiazol-2-yloxy)-1-azatricyclo[3.3.1.1^3,7]decane]
effect on negative symptoms of schizophrenia (summary) ([2]; human, in vivo): No effect | NSA-16 analyses ([2]; nonsmoking subjects and subjects with predominant negative symptoms): did not reveal statistical significance | Primary reason for discontinuation: Adverse event ([3]; 10 mg QD): 4 (5.8) n (%) | Primary reason for discontinuation: Adverse event ([3]; 25 mg QD): 3 (4.5) n (%) | Primary reason for discontinuation: Adverse event ([3]; Compound A overall): 7 (5.1) n (%) | tolerability in subjects with schizophrenia ([3]; doses up to 25 mg QD, including 10 mg QD and 25 mg QD): well tolerated | change from baseline to Week 12 in MCCB composite score (LS mean) ([4]; 10 mg QD oral, P=0.088 versus placebo (LS mean +0.50)): +1.79 | change from baseline to Week 12 in MCCB composite score (LS mean) ([4]; 25 mg QD oral, P=0.067 versus placebo (LS mean +0.50)): +2.02 | effect on cognition in subjects with schizophrenia (summary) ([4]; driven by verbal learning, working memory and attention, consequence of the effect in nonsmoking subjects): procognitive effect | MCCB social cognition domain, mean values across treatment groups ([4]; nonsmokers, 10 mg, 25 mg and placebo): similar | MCCB all other domains with the exception of reasoning and problem solving, effect versus placebo ([4]; nonsmokers, active treatment groups, monotonic dose relationship): magnitude of effect was greater | MCCB composite LS mean change from baseline to Week 12 ([4]; 10 mg, P=0.021 compared to placebo (−0.7)): +2.1 | MCCB composite LS mean change from baseline to Week 12 ([4]; 25 mg, P=0.001 compared to placebo (−0.7)): +4.5 | change from baseline scores on the MCCB composite and domain scores [4, 10]: markedly similar to placebo | changes in the PANSS scores [5]: no significant changes | UPSA-2 composite score ([6]; ITT, either dose group (10 mg, 25 mg)): No significance | UPSA-2 change from baseline score ([6]; nonsmokers, 10 mg): 1.4 | UPSA-2 change from baseline score ([6]; nonsmokers, 25 mg): 3.9 | UPSA-2 effect size (Cohen's d) based on the raw data [6, 11]: 0.13 | UPSA-2 model-based effect size [6, 11]: 0.23 | change from baseline scores on the UPSA-2 [6, 10]: markedly similar to placebo | Results of the CANTAB battery [7]: markedly similar to those of the MCCB

O=C(N[C@H]1CN2CCC1CC2)c1cc2cccc(Cl)c2s1 [EVP-6124, N-[(3R)-1-azabicyclo[2.2.2]oct-3-yl]-7-chloro-1-benzothiophene-2-carboxamide]
effect on the CogState test battery [8]: improvements

COc1ccc(/C=C2\CCCN=C2c2cccnc2)c(OC)c1 [GTS-21]
effect on the Repeatable Battery for the Assessment of Neuropsychological Status total scale [9]: positive effects

Source: patent US20130317054A1, “NEURONAL NICOTINIC AGONIST AND METHODS OF USE” (ABBVIE INC., priority 2012, published 2013)
